Values of other authors, collected in patent US7012096B2, “Composition for pain mediation and apparatus and method of use thereof” (Palladin Healthcare International, Inc., priority 1998, dated 2006).

Tests used:
human fibroblasts = conditions: in vitro tissue culture
human keratinocytes = conditions: in vitro tissue culture

In the case of `CC(=O)O` [acetic acid], the “Concentration toxic to human fibroblasts” value (human fibroblasts) is given as “above 0.025%” and the “Concentration toxic to human keratinocytes” value (human keratinocytes) is given as “above 0.025%”.
